Laboratory results published in US6924309B2 (Children, Youth and Women's Health Service Incorporated, priority 1999, dated 2005).
In brackets after ≈: the same amount, converted by molar mass. Like-named read-outs stand apart in the source and are kept apart here. One block for each compound: values may come before it.

Tests used:
15-LO = biological target: T1, 15-LO (Glycine max, UniProt P08170); test: Effect on 15-LO catalysed oxidation of arachidonic acid; type: biochemical, soybean
T1 construct: purchased Sigma Chemical Company
T1 sequence (P08170 1-839): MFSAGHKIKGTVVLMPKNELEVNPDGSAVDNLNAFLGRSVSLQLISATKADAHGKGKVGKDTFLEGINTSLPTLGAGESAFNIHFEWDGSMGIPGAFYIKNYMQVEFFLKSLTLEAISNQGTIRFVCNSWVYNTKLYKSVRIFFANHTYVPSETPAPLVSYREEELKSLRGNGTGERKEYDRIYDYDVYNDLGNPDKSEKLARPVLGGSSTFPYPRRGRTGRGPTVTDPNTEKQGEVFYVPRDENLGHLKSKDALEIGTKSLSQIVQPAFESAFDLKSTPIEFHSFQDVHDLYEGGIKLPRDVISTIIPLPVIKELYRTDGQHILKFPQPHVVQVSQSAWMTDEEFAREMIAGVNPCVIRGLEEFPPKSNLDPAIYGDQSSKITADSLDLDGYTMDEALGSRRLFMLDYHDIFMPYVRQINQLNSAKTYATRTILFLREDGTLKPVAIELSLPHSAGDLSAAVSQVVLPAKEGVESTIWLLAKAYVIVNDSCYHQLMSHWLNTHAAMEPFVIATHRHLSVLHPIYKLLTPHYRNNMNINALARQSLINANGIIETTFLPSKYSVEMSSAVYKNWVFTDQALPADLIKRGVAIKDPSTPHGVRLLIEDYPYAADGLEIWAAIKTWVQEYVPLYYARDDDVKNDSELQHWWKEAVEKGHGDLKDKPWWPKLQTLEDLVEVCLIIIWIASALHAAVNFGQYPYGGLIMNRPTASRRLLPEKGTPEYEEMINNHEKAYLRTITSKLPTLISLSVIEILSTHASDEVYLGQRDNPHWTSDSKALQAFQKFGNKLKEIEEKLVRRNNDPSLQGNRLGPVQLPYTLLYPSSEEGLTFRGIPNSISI

[1] = system: Plasmodium falciparum isolates 3D7, FC27, K+; test: Radiometric (3H-hypoxanthine) assay on asexual blood stages of P. falciparum; type: cell-based; details: for EC50: Plasmodium falciparum, read-out: EC50 against P. falciparum
Description: Using the radiometric assay^(36), the effects of the Lx compounds were examined for antimalarial activity. The Plasmodium falciparum isolates used were 3D7, FC27, K^1 and K^+. These were maintained in human blood group O^+ erythrocytes essentially as described previously using RPM-1640 (HEPES modification) supplemented with 0.25% D-glucose, 0.2% Tess buffer (Sigma Chemical Co, Lt Louis, Mo.) and 10% heat inactivated (56° C., 20 min) human blood group AB serum. Cultures were maintained in tissue culture flasks (Corning, N.Y.) at 37° C. under an atmosphere of 1% 2, 5% CO2 in N2. P. falciparum cultures containing approximately 3.0:% parasitaemia were adjusted to 1×10^8 erythrocytes/ml. To 50 μl of the parasite-erythrocyte culture (5×10^6 erythrocytes) in wells of 96-well microdilution plates wvas added 50 μl of the designated concentration of fatty acid or equivalent amounts of solutions or media. The treated cultures were incubated at 37° C. for 4 h and then pulsed with 50 μl (2.5 μCi) of ^3H-hypoxanthine. After a further 18 h incubation the parasites-erythrocytes were harvested onto glass fibre filter papers using a cell harvester. The amount of radioactivity incorporated was measured in a β-counter. The results have been expressed as % inhibition of parasite growth i.e. the dpm in the fatty acid diluent−dpm in the fatty acid treated cultures/dpm in diluent×100.

[2] = Petri-dish thin film autoxidation of arachidonic acid with thia fatty acids and sulfides (HPLC)
Description: A stock solution in dichioromethane (2 ml) containing arachidonic acid 1 (18 mg) and 3-[(3Z,6Z)-nona-3,6dienylthio]propionic acid 106 (18 mg) was prepared with lauric acid (18 mg) as an internal standard. Samples of the stock solution (100 μl) were added to glass Petri-dishes followed by ethanol (400 μl). After evaporation of the solvent, a well-distributed thin film was formed on each Petri-dish. The Petri-dishes were placed in a desiccator, which was then evacuated, filled with oxygen and stored in the darkness. Dishes were removed from the desiccator after 1, 2, 3, 5 and 7 days. The mixture on each dish was redissolved in diethyl ether and transferred to a 2 ml vial. After evaporation of the solvent, the residue was dissolved in the HPLC mobile phase (100 μl) and 10% of the solution was analysed by HPLC using a reverse phase column (octadecylsilane) (4.6 mm×250 mm, 3 μm) and a refractive index detector.
Autoxidation of arachidonic acid was conducted in the presence of compound 19 and lauric acid. Stock solutions of arachidonic acid, compound 19 and lauric acid in dichloromethane with equal concentrations were added to a 25 ml round-bottomed flask, and the solvent was evaporated to leave a thin film on the internal surface of the flask. The flask was then filled with oxygen and kept in the dark. The percentages of arachidonic acid and compound 19 remaining after 7 days were measured by HPLC. The same assay was carried out simultaneously with several flasks but the results were not reproducible. The variation was attributed to differences in oxygen concentration and the surface area of the thin films formed in the flasks. Therefore, in order to establish a reproducible assay for the analysis of the autoxidation of arachidonic acid, Petri-dishes with uniform size (80 mm in diameter) were used instead of flasks for thin film formation and the oxidation was carried out by placing the Petri-dishes in a dessicator filled with oxygen. To assess this method, thin firms of arachidonic acid with lauric acid as a standard were prepared on six Petri-dishes using identical treatment, and then subjected to oxidation in the same dessicator filled with oxygen. After 24 h, the percentage of arachidonic acid recovered following autoxidation in each Petri-dish was determined by HPLC. […] The advantage of using a Petri-dish over a flask is that the thin films on each Petri-dish are spread over the same area, and each Petri-dish is exposed to oxygen to the same extent.
Using the Petri-dish assay method, the effects of the thia PUFAs and sulfides 106 and 108-111, along with compounds 18, 19 and 3-[(Z,Z,Z)-(octadeca-9,12,15-trienylthio)] propionic acid 112 which were available in the laboratory, on the autoxidation of arachidonic acid, were examined. In addition, the stability of these compounds in the presence of arachidonic acid was also investigated. Arachidonic acid and lauric acid as a standard were mixed with each sulfur compound at different ratios and the mixtures were subjected to thin film autoxidation. The mixtures were analysed by HPLC after 1,2,3,5 and 7 days.

[3] = Thin film autoxidation of arachidonic acid with compounds 16-19 (HPLC)
Description: Subsequently, the autoxidation of compounds 16-19 and their effects on the autoxidation of arachidonic acid were investigated. In these experiments, a thin film assay method was employed. For each reaction, arachidonic acid was mixed with one of the synthetic compounds 16, 17, 18 or 19 at 1:1 ratio with or without the radical initiator, azobisisobutyronitrile (AIBN). A reverse phase HPLC method was used to simultaneously measure the relative amounts of arachidonic acid and the synthetic compounds 16, 17, 18 or 19 recovered following 60 or 70 hours or 7 days of thin film autoxidation.

[4] = ratio 2:1, with AIBN at 10% the amount of arachidonic acid, 1 day
[5] = ratio 2:1, with AIBN at 10% the amount of arachidonic acid, 2 days
[6] = ratio 2:1, with AIBN at 10% the amount of arachidonic acid, 3 days
[7] = ratio 2:1, with AIBN at 10% the amount of arachidonic acid, 5 days
[8] = ratio 2:1, with AIBN at 10% the amount of arachidonic acid, 7 days
[9] = ratio arachidonic acid:compound 1:1, 1 day
[10] = ratio arachidonic acid:compound 1:1, 2 days
[11] = ratio arachidonic acid:compound 1:1, 3 days
[12] = ratio arachidonic acid:compound 1:1, 5 days
[13] = ratio arachidonic acid:compound 1:1, 7 days
[14] = ratio arachidonic acid:compound 2:1, 1 day
[15] = ratio arachidonic acid:compound 2:1, 2 days
[16] = ratio arachidonic acid:compound 2:1, 3 days
[17] = ratio arachidonic acid:compound 2:1, 5 days
[18] = ratio arachidonic acid:compound 2:1, 7 days
[19] = ratio arachidonic acid:compound 10:1, 1 day
[20] = ratio arachidonic acid:compound 10:1, 2 days
[21] = ratio arachidonic acid:compound 10:1, 3 days

Effect on 15-LO catalysed oxidation of AA (15-LO): Nil
SMILES: CC/C=C\C/C=C\C/C=C\C/C=C\C/C=C\C/C=C\CCC[N+](=O)[O-] [Lx5, (a11-z)-1-Nitro-4,7,10,13,16,19-docosahexaene]

EC50 ([1]; 3D7, isolate FC27): 12 µg/mL (≈ 36.5 µM)
EC50 ([1]; 3D7, isolate K+): 4 µg/mL (≈ 12.2 µM)
SMILES: CC/C=C\C/C=C\C/C=C\C/C=C\C/C=C\C/C=C\CCC(=O)O [22:6n-3, docosahexaenoic acid, reference compound]
Reduction of antimalarial activity by human serum ([1]; compound 20 μg/ml, presence of human serum): 85%

SMILES: CCCCC/C=C\C/C=C\C/C=C\C/C=C\CCCCSCCC(=O)O [Compound 19]
Antioxidant effect on autoxidation of arachidonic acid (in words) [2]: effective antioxidants
Antioxidant effect on autoxidation of arachidonic acid (in words) ([2]; 1:1 ratio with arachidonic acid): almost complete prevention of autoxidation
Antioxidant effect on autoxidation of arachidonic acid (in words) ([2]; compound at one-tenth that of arachidonic acid): very slow over the first 3 days
Arachidonic acid (%) recovered following autoxidation in the presence of the compound [2, 4]: 100%
Compound (%) recovered following autoxidation with arachidonic acid [2, 4]: 98%
Arachidonic acid (%) recovered following autoxidation in the presence of the compound [2, 5]: 98%
Compound (%) recovered following autoxidation with arachidonic acid [2, 5]: 95%
Arachidonic acid (%) recovered following autoxidation in the presence of the compound [2, 6]: 94%
Compound (%) recovered following autoxidation with arachidonic acid [2, 6]: 80%
Arachidonic acid (%) recovered following autoxidation in the presence of the compound [2, 7]: 49%
Compound (%) recovered following autoxidation with arachidonic acid [2, 7]: 47%
Arachidonic acid (%) recovered following autoxidation in the presence of the compound [2, 8]: 35%
Compound (%) recovered following autoxidation with arachidonic acid [2, 8]: 43%
Arachidonic acid (%) recovered following autoxidation in the presence of the compound [2, 9]: 99%
Compound (%) recovered following autoxidation with arachidonic acid [2, 9]: 99%
Arachidonic acid (%) recovered following autoxidation in the presence of the compound [2, 10]: 100%
Compound (%) recovered following autoxidation with arachidonic acid [2, 10]: 100%
Arachidonic acid (%) recovered following autoxidation in the presence of the compound [2, 11]: 99%
Compound (%) recovered following autoxidation with arachidonic acid [2, 11]: 99%
Arachidonic acid (%) recovered following autoxidation in the presence of the compound [2, 12]: 99%
Compound (%) recovered following autoxidation with arachidonic acid [2, 12]: 98%
Arachidonic acid (%) recovered following autoxidation in the presence of the compound [2, 13]: 98%
Compound (%) recovered following autoxidation with arachidonic acid [2, 13]: 99%
Arachidonic acid (%) recovered following autoxidation in the presence of the compound [2, 14]: 100%
Compound (%) recovered following autoxidation with arachidonic acid [2, 14]: 98%
Arachidonic acid (%) recovered following autoxidation in the presence of the compound [2, 15]: 99%
Compound (%) recovered following autoxidation with arachidonic acid [2, 15]: 96%
Arachidonic acid (%) recovered following autoxidation in the presence of the compound [2, 16]: 100%
Compound (%) recovered following autoxidation with arachidonic acid [2, 16]: 96%
Arachidonic acid (%) recovered following autoxidation in the presence of the compound [2, 17]: 98%
Compound (%) recovered following autoxidation with arachidonic acid [2, 17]: 94%
Arachidonic acid (%) recovered following autoxidation in the presence of the compound [2, 18]: 97%
Compound (%) recovered following autoxidation with arachidonic acid [2, 18]: 90%
Arachidonic acid (%) recovered following autoxidation in the presence of the compound [2, 19]: 99%
Compound (%) recovered following autoxidation with arachidonic acid [2, 19]: 95%
Arachidonic acid (%) recovered following autoxidation in the presence of the compound [2, 20]: 99%
Compound (%) recovered following autoxidation with arachidonic acid [2, 20]: 87%
Arachidonic acid (%) recovered following autoxidation in the presence of the compound [2, 21]: 87%
Compound (%) recovered following autoxidation with arachidonic acid [2, 21]: 38%
Arachidonic acid (%) recovered following autoxidation in the presence of the compound ([2]; ratio arachidonic acid:compound 10:1, 5 days): 42%
Arachidonic acid (%) recovered following autoxidation in the presence of the compound ([2]; ratio arachidonic acid:compound 10:1, 7 days): 17%
Percentage of arachidonic acid recovered in the presence of the compound ([3]; ratio 1:1, 10% AIBN 60 h): 100%
Percentage of compound recovered (with arachidonic acid) ([3]; ratio 1:1, 10% AIBN 60 h): 96%
Percentage of arachidonic acid recovered in the presence of the compound ([3]; ratio 1:1, no additive 70 h): 101%
Percentage of compound recovered (with arachidonic acid) ([3]; ratio 1:1, no additive 70 h): 98%
Percentage of arachidonic acid recovered in the presence of the compound ([3]; ratio 1:1, no additive 7 day): 102%
Percentage of compound recovered (with arachidonic acid) ([3]; ratio 1:1, no additive 7 day): 96%
Autoxidation of arachidonic acid in the presence of the compound (in words) ([3]; ratio 1:1, with or without AIBN): completely inhibited
